Source: US20240409585A1, “MACROCYCLIC IMMUNOMODULATORS” (priority 2021, published 2024)
Numbered stars: 1 amine (or outer) side, 2 acyl side, 3 side chain; on linkers, the order of the positions; unused ones are H or OH. Bridge positions count the residues as written; N and C are the ends. Square brackets hold non-standard residues; d marks the D form. Peptide text beside a SMILES is read from it. * marks the point of attachment. X45 = CNS(=O)(=O)c1cccc(-c2ccc(C[C@H](N[*:1])C(=O)[*:2])cc2)c1; Bip(4'-COOH) = N[C@@H](Cc1ccc(-c2ccc(C(=O)O)cc2)cc1)C(=O)O; Bip(4'-NHAc) = CC(=O)Nc1ccc(-c2ccc(C[C@H](N)C(=O)O)cc2)cc1; X32 = N=C(N)NCc1ccc(C[C@H](N[*:1])C(=O)[*:2])cc1; Phe(3-CF3) = N[C@@H](Cc1cccc(C(F)(F)F)c1)C(=O)O; Ala(morpholin-4-yl) = N[C@@H](CN1CCOCC1)C(=O)O; Phe(4-CONH2) = NC(=O)c1ccc(C[C@H](N)C(=O)O)cc1; Phe(4-COOH) = N[C@@H](Cc1ccc(C(=O)O)cc1)C(=O)O; Bip = N[C@@H](Cc1ccc(-c2ccccc2)cc1)C(=O)O; Abu(3R-NH2) = C[C@@H](N)[C@H](N)C(=O)O; Phe(3-Me) = Cc1cccc(C[C@H](N)C(=O)O)c1; Abu(3S-NH2) = C[C@H](N)[C@H](N)C(=O)O; Gla = N[C@@H](CC(C(=O)O)C(=O)O)C(=O)O; Val(3-OH) = CC(C)(O)[C@H](N)C(=O)O; hPhe = N[C@@H](CCc1ccccc1)C(=O)O; Cha = N[C@@H](CC1CCCCC1)C(=O)O; Agb = N=C(N)NCC[C@H](N)C(=O)O; Carboxymethyl = O=C(O)C*; NMeA = CN[C@@H](C)C(=O)O; Orn = NCCC[C@H](N)C(=O)O; Dab = NCC[C@H](N)C(=O)O

biological target: T1, Alexa fluor-647 labeled human PD-L1-Ig binding to Jurkat cell line over-expressing human PD-1 (Homo sapiens, UniProt Q15116); assay: Jurkat-PD-1 Cell Binding High-Content Screening Assay (CBA): Method 3 (Alexa fluor-647 labeled PD-L1-Ig); settings: Jurkat-PD-1 cells, Alexa fluor-647 labeled PD-L1-Ig 177 nM; head μM; read-out: CBA Method 3 μM
T1 construct: expressed in transfected cells; host or cells: Jurkat
T1 sequence (Q15116 25-288): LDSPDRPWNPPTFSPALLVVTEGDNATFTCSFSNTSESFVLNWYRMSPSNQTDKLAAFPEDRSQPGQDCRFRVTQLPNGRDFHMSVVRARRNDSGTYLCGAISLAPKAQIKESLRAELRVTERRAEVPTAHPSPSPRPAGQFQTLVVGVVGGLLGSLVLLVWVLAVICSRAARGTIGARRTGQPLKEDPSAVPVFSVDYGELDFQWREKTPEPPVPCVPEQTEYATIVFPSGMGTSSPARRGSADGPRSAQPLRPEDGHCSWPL
In short: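 Jurkat cells over-expressing human PD-1 in RPMI/10% FCS were preincubated 2 h at 37 °C with compound, then exposed 1 h to Alexa fluor-647 labeled human PD-L1-Ig (177 nM final). Cells fixed in 4% paraformaldehyde with Hoechst 33342 and binding quantified by high-content imaging.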

First: Cc1cccc(C[C@@H]2NC(=O)[C@H](CC(=O)O)NC(=O)[C@H](Cc3ccc(-c4ccc(C(=O)O)cc4)cc3)NC(=O)[C@H](C)NC(=O)CSC[C@@H](C(=O)N[C@@H](CCN)C(N)=O)NC(=O)[C@H](CO)NC(=O)[C@H](C(C)(C)O)NC(=O)[C@H](CC3CCCCC3)NC(=O)[C@H](Cc3cnc[nH]3)NC(=O)[C@@H](CC(C)C)NC(=O)[C@H](C)N(C)C(=O)[C@H](Cc3ccc(C(=O)O)cc3)NC(=O)[C@H](Cc3ccc(-c4ccccc4)cc3)NC(=O)[C@H](Cc3ccc(-c4ccc(C(=O)O)cc4)cc3)NC2=O)c1 [Example 5121] ({CH2CO}-A[Bip(4'-COOH)]D[Phe(3-Me)][Bip(4'-COOH)][Bip][Phe(4-COOH)][NMeA][dL]H[Cha][Val(3-OH)]SC[Dab]-NH2; thioether N-14)
Second: CC(=O)Nc1ccc(-c2ccc(C[C@@H]3NC(=O)[C@H](Cc4cccc(C)c4)NC(=O)[C@H](CC(=O)O)NC(=O)[C@H](Cc4ccc(C(=O)O)cc4)NC(=O)[C@H](CC4CCCCC4)NC(=O)CSC[C@@H](C(=O)N[C@@H](CCN)C(N)=O)NC(=O)[C@H](CCC(=O)O)NC(=O)[C@H](C(C)C)NC(=O)[C@H](CC4CCCCC4)NC(=O)[C@H](CCN)NC(=O)[C@@H](CC(C)C)NC(=O)[C@H](C)N(C)C(=O)[C@H](CCC(N)=O)NC(=O)[C@H](Cc4ccc(-c5ccccc5)cc4)NC3=O)cc2)cc1 [Example 5203] ({CH2CO}-[Cha][Phe(4-COOH)]D[Phe(3-Me)][Bip(4'-NHAc)][Bip]Q[NMeA][dL][Dab][Cha]VEC[Dab]-NH2; thioether N-14)
The IC50 of the first is 7-fold higher: 0.07 µM for the first, 0.01 µM for the second.

Going from Cc1cccc(C[C@@H]2NC(=O)[C@H](CC(=O)O)NC(=O)[C@H](Cc3ccc(OCC(=O)O)cc3)NC(=O)[C@H](Cc3ccc(CNC(=N)N)cc3)NC(=O)CSC[C@@H](C(=O)N[C@@H](CCN)C(N)=O)NC(=O)[C@H](CCCN)NC(=O)[C@H](C(C)C)NC(=O)[C@H](CC3CCCCC3)NC(=O)[C@H](CCN)NC(=O)[C@@H](CC(C)C)NC(=O)[C@H](C)N(C)C(=O)[C@H](CCC(N)=O)NC(=O)[C@H](Cc3ccc(-c4ccccc4)cc3)NC(=O)[C@H](Cc3ccc(C(=O)O)cc3)NC2=O)c1 [Example 5278] ({CH2CO}-[X32]Y(Carboxymethyl)D[Phe(3-Me)][Phe(4-COOH)][Bip]Q[NMeA][dL][Dab][Cha]V[Orn]C[Dab]-NH2; thioether N-14) to Cc1cccc(C[C@@H]2NC(=O)[C@H](CC(=O)O)NC(=O)[C@H](Cc3ccc(OCC(=O)O)cc3)NC(=O)[C@H](CCNC(=N)N)NC(=O)CSC[C@@H](C(=O)N[C@@H](CCN)C(N)=O)NC(=O)[C@H](CCCN)NC(=O)[C@H](C(C)C)NC(=O)[C@H](CC3CCCCC3)NC(=O)[C@H](CCN)NC(=O)[C@@H](CC(C)C)NC(=O)[C@H](C)N(C)C(=O)[C@H](CCC(N)=O)NC(=O)[C@H](Cc3ccc(-c4ccccc4)cc3)NC(=O)[C@H](Cc3ccc(C(=O)O)cc3)NC2=O)c1 [Example 5182] ({CH2CO}-[Agb]Y(Carboxymethyl)D[Phe(3-Me)][Phe(4-COOH)][Bip]Q[NMeA][dL][Dab][Cha]V[Orn]C[Dab]-NH2; thioether N-14), the IC50 falls from 0.31 µM to 0.01 µM (31-fold). The second is the more potent here.

same assay, conditions: Jurkat-PD-1 cells, Alexa fluor-647 labeled PD-L1-Ig 177 nM; nM; read-out: CBA Method 3

CC[C@H](C)[C@@H]1NC(=O)CSC[C@@H](C(=O)N[C@@H](CCN)C(N)=O)NC(=O)[C@H](CCCN)NC(=O)[C@H](C(C)C)NC(=O)[C@H](CC2CCCCC2)NC(=O)[C@H](CCN)NC(=O)[C@@H](CC(C)C)NC(=O)[C@H](C)N(C)C(=O)[C@H](CCC(N)=O)NC(=O)[C@H](Cc2ccc(-c3ccccc3)cc2)NC(=O)[C@H](Cc2ccc(C(=O)O)cc2)NC(=O)[C@H](Cc2cccc(C)c2)NC(=O)[C@H](CC(=O)O)NC(=O)[C@H](Cc2ccc(OCC(=O)O)cc2)NC1=O [Example 5268] ({CH2CO}-IY(Carboxymethyl)D[Phe(3-Me)][Phe(4-COOH)][Bip]Q[NMeA][dL][Dab][Cha]V[Orn]C[Dab]-NH2; thioether N-14) and Cc1cccc(C[C@@H]2NC(=O)[C@H](CC(=O)O)NC(=O)[C@H](Cc3ccc(OCC(=O)O)cc3)NC(=O)[C@H](CCCN)NC(=O)CSC[C@@H](C(=O)N[C@@H](CCN)C(N)=O)NC(=O)[C@H](CCCN)NC(=O)[C@H](C(C)C)NC(=O)[C@H](CC3CCCCC3)NC(=O)[C@H](CCN)NC(=O)[C@@H](CC(C)C)NC(=O)[C@H](C)N(C)C(=O)[C@H](CCC(N)=O)NC(=O)[C@H](Cc3ccc(-c4ccccc4)cc3)NC(=O)[C@H](Cc3ccc(C(=O)O)cc3)NC2=O)c1 [Example 5180] ({CH2CO}-[Orn]Y(Carboxymethyl)D[Phe(3-Me)][Phe(4-COOH)][Bip]Q[NMeA][dL][Dab][Cha]V[Orn]C[Dab]-NH2; thioether N-14) are within 1.5-fold of each other in IC50: 0.0053 µM for the first, 0.0068 µM for the second.

CC(=O)Nc1ccc(-c2ccc(C[C@@H]3NC(=O)[C@H](Cc4cccc(C(F)(F)F)c4)NC(=O)[C@H](CC(=O)O)NC(=O)[C@H](Cc4ccc(C(=O)O)cc4)NC(=O)[C@H]([C@H](C)N)NC(=O)CSC[C@@H](C(=O)N[C@@H](CCN)C(N)=O)NC(=O)[C@H](CC(N)=O)NC(=O)[C@H](C(C)C)NC(=O)[C@H](CC4CCCCC4)NC(=O)[C@H](CCN)NC(=O)[C@@H](CC(C)C)NC(=O)[C@H](C)N(C)C(=O)[C@H](Cc4ccc(C(N)=O)cc4)NC(=O)[C@H](Cc4ccc(-c5ccccc5)cc4)NC3=O)cc2)cc1 [Example 5109] ({CH2CO}-[Abu(3S-NH2)][Phe(4-COOH)]D[Phe(3-CF3)][Bip(4'-NHAc)][Bip][Phe(4-CONH2)][NMeA][dL][Dab][Cha]VNC[Dab]-NH2; thioether N-14) and CC(=O)Nc1ccc(-c2ccc(C[C@@H]3NC(=O)[C@H](Cc4cccc(C)c4)NC(=O)[C@H](CC(=O)O)NC(=O)[C@H](Cc4ccc(C(=O)O)cc4)NC(=O)[C@H](CC4CCCCC4)NC(=O)CSC[C@@H](C(=O)N[C@@H](CCN)C(N)=O)NC(=O)[C@H](CCC(=O)O)NC(=O)[C@H](C(C)C)NC(=O)[C@H](CC4CCCCC4)NC(=O)[C@H](CCN)NC(=O)[C@@H](CC(C)C)NC(=O)[C@H](C)N(C)C(=O)[C@H](Cc4ccc(OCC(=O)O)cc4)NC(=O)[C@H](Cc4ccc(-c5ccccc5)cc4)NC3=O)cc2)cc1 [Example 5202] ({CH2CO}-[Cha][Phe(4-COOH)]D[Phe(3-Me)][Bip(4'-NHAc)][Bip]Y(Carboxymethyl)[NMeA][dL][Dab][Cha]VEC[Dab]-NH2; thioether N-14) are within 1.5-fold of each other in IC50: 0.0044 µM for the first, 0.0049 µM for the second.

First: Cc1cccc(C[C@@H]2NC(=O)CSC[C@@H](C(=O)N[C@@H](CCN)C(N)=O)NC(=O)[C@H](CCCN)NC(=O)[C@H](C(C)C)NC(=O)[C@H](CC3CCCCC3)NC(=O)[C@H](CCN)NC(=O)[C@@H](CC(C)C)NC(=O)[C@H](C)N(C)C(=O)[C@H](CCC(N)=O)NC(=O)[C@H](Cc3ccc(-c4ccccc4)cc3)NC(=O)[C@H](Cc3ccc(C(=O)O)cc3)NC(=O)[C@H](Cc3cccc(C)c3)NC(=O)[C@H](CC(=O)O)NC(=O)[C@H](Cc3ccc(OCC(=O)O)cc3)NC2=O)c1 [Example 5273] ({CH2CO}-[Phe(3-Me)]Y(Carboxymethyl)D[Phe(3-Me)][Phe(4-COOH)][Bip]Q[NMeA][dL][Dab][Cha]V[Orn]C[Dab]-NH2; thioether N-14)
Second: Cc1cccc(C[C@@H]2NC(=O)[C@H](CC(=O)O)NC(=O)[C@H](Cc3ccc(OCC(=O)O)cc3)NC(=O)[C@H](CC(C(=O)O)C(=O)O)NC(=O)CSC[C@@H](C(=O)N[C@@H](CCN)C(N)=O)NC(=O)[C@H](CCCN)NC(=O)[C@H](C(C)C)NC(=O)[C@H](CC3CCCCC3)NC(=O)[C@H](CCN)NC(=O)[C@@H](CC(C)C)NC(=O)[C@H](C)N(C)C(=O)[C@H](CCC(N)=O)NC(=O)[C@H](Cc3ccc(-c4ccccc4)cc3)NC(=O)[C@H](Cc3ccc(C(=O)O)cc3)NC2=O)c1 [Example 5169] ({CH2CO}-[Gla]Y(Carboxymethyl)D[Phe(3-Me)][Phe(4-COOH)][Bip]Q[NMeA][dL][Dab][Cha]V[Orn]C[Dab]-NH2; thioether N-14)
The IC50 of the first is 18-fold lower: 0.0005 µM for the first, 0.0089 µM for the second. The first is the more potent here.

First: CNS(=O)(=O)c1cccc(-c2ccc(C[C@@H]3NC(=O)[C@H](Cc4cccc(C)c4)NC(=O)[C@H](CC(=O)O)NC(=O)[C@H](Cc4ccc(OCC(=O)O)cc4)NC(=O)[C@H](CN4CCOCC4)NC(=O)CSC[C@@H](C(=O)N[C@@H](CCN)C(N)=O)NC(=O)[C@H](CCCN)NC(=O)[C@H](C(C)C)NC(=O)[C@H](CC4CCCCC4)NC(=O)[C@H](CCN)NC(=O)[C@@H](CC(C)C)NC(=O)[C@H](C)N(C)C(=O)[C@H](CCC(N)=O)NC(=O)[C@H](Cc4ccc(-c5ccccc5)cc4)NC3=O)cc2)c1 [Example 5108] ({CH2CO}-[Ala(morpholin-4-yl)]Y(Carboxymethyl)D[Phe(3-Me)][X45][Bip]Q[NMeA][dL][Dab][Cha]V[Orn]C[Dab]-NH2; thioether N-14)
Second: CC(C)C[C@H]1NC(=O)[C@H](C)N(C)C(=O)[C@H](CCC(N)=O)NC(=O)[C@H](Cc2ccc(-c3ccccc3)cc2)NC(=O)[C@H](CCc2ccccc2)NC(=O)[C@H](Cc2cccc(C(F)(F)F)c2)NC(=O)[C@H](CC(=O)O)NC(=O)[C@H](Cc2ccc(OCC(=O)O)cc2)NC(=O)[C@H]([C@@H](C)N)NC(=O)CSC[C@@H](C(=O)N[C@@H](CCN)C(N)=O)NC(=O)[C@H](CO)NC(=O)[C@H](C(C)(C)O)NC(=O)[C@H](CC2CCCCC2)NC(=O)[C@H](CCN)NC1=O [Example 5227] ({CH2CO}-[Abu(3R-NH2)]Y(Carboxymethyl)D[Phe(3-CF3)][hPhe][Bip]Q[NMeA][dL][Dab][Cha][Val(3-OH)]SC[Dab]-NH2; thioether N-14)
The IC50 of the first is 4.9-fold higher: 0.0073 µM for the first, 0.0015 µM for the second.

Work on CC(=O)Nc1ccc(-c2ccc(C[C@@H]3NC(=O)[C@H](Cc4cccc(C)c4)NC(=O)[C@H](CC(=O)O)NC(=O)[C@H](Cc4ccc(-c5ccc(C(=O)O)cc5)cc4)NC(=O)[C@H](CN4CCOCC4)NC(=O)CSC[C@@H](C(=O)N[C@@H](CCN)C(N)=O)NC(=O)[C@H](CO)NC(=O)[C@H](C(C)(C)O)NC(=O)[C@H](CC4CCCCC4)NC(=O)[C@H](Cc4cnc[nH]4)NC(=O)[C@@H](CC(C)C)NC(=O)[C@H](C)N(C)C(=O)[C@H](Cc4ccc(C(=O)O)cc4)NC(=O)[C@H](Cc4ccc(-c5ccccc5)cc4)NC3=O)cc2)cc1 [Example 5123] ({CH2CO}-[Ala(morpholin-4-yl)][Bip(4'-COOH)]D[Phe(3-Me)][Bip(4'-NHAc)][Bip][Phe(4-COOH)][NMeA][dL]H[Cha][Val(3-OH)]SC[Dab]-NH2; thioether N-14) yielded an IC50 of 0.0094 µM.
